Measured values reported in paper PMC2921628 (Biochemistry, 2010).
Read-outs that look alike come from different tables or passages of the source.

Assays:
cdk5/p25 [1] = molecular target: T1, cdk5/p25 (Homo sapiens, UniProt Q00535); test: Inhibition studies with substrate analogues and product ADP at 0.2 mM MgCl2; format: biochemical; details: 0.2 mM Mg^2+
cdk5/p25 [2] = molecular target: T1, cdk5/p25; test: Influence of D2O on inhibitor; format: biochemical; details: 10 µM ATP, saturating H1P; data not shown
cdk5/p25 [3] = molecular target: T1, cdk5/p25; test: Initial velocity kinetic analysis of cdk5/p25-catalyzed H1P phosphorylation; format: biochemical
[4] = cited from earlier work
[5] = versus variable substrate ATP (H1P fixed)
[6] = versus variable substrate H1P (ATP fixed)

T1 sequence (Q00535 whole entry, species assumed): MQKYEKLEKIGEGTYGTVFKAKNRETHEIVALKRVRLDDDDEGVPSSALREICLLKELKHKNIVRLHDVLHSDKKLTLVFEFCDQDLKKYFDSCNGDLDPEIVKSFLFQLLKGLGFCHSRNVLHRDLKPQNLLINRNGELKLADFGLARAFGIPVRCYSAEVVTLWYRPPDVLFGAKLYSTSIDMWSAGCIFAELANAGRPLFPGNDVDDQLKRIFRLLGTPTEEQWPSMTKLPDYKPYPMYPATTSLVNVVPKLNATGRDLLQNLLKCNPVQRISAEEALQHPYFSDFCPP
T1 sequence (Q15078 99-307 partner limits assumed, species assumed): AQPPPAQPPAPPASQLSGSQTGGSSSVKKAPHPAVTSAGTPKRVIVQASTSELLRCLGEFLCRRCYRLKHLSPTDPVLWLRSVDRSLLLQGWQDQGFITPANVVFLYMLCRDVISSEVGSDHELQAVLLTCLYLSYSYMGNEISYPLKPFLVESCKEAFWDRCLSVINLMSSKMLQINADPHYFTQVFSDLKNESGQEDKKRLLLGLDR

With `Nc1ncnc2c1ncn2[C@@H]1O[C@H](COP(=O)(O)OP(=O)(O)O)[C@@H](O)[C@H]1O` [ADP] the mechanism of inhibition (cdk5/p25 [1]; [5]) was “competitive” and the mechanism of inhibition (cdk5/p25 [1]; [6]) was “noncompetitive”.

In the case of `Nc1ncnc2c1ncn2[C@@H]1O[C@H](COP(=O)(O)O)[C@@H](O)[C@H]1O` [AMP], the “enzyme forms that inhibitor binds” value (cdk5/p25 [1]) is reported as “binds to both E and E:B complex”, the mechanism of inhibition (cdk5/p25 [1]; [5]) is reported as “competitive” and the mechanism of inhibition (cdk5/p25 [1]; [6]) is reported as “noncompetitive”. For the same molecule, the “dissociation constant from E:H1P:AMP, lowering in 85% D2O compared with water” value (cdk5/p25 [2]) was “approximately 1.5 fold”.

In the case of `Nc1ncnc2c1ncn2[C@@H]1O[C@H](COP(=O)(O)OP(=O)(O)OP(=O)(O)O)[C@@H](O)[C@H]1O` [ATP, Adenosine 5’-triphosphate], the Kd (cdk5/p25 [3]; KATP (KMgATP), 2.5 mM free Mg^2+) is given as 6.1 ± 1.5 µM and the “pKa for protonation of the γ-phosphate of ATP” value [4] is given as 4.6.

With `Nc1ncnc2c1ncn2[C@@H]1O[C@H](COP(=O)(O)OP(=O)([O-])OP(=O)([O-])O)[C@@H](O)[C@H]1O.[Mg+2]` [MgATP] the hill coefficient (cdk5/p25 [3]; MgATP dependence of (kcat)H1P at 0.2 mM free Mg^2+ (Figure 1B)) was 1.8 ± 0.1, the Kd (cdk5/p25 [3]; read-out: KATP (KMgATP), 0.2 mM free Mg^2+) was 60 ± 20 µM and the Kd (cdk5/p25 [3]; read-out: KATP (KMgATP), 2.5 mM free Mg^2+) was 6.1 ± 1.5 µM. For the same molecule, the “dissociation constant of MgATP” value ([4]; used to calculate MgATP and free Mg^2+ concentrations) was 14.3 µM.
